Data from publication PMC5218480 (PLoS ONE, 2017).

Tested on: MV-4-11 cells
Test: Gene expression microarray analysis (Affymetrix PrimeView) and GSEA
Type: cell-based, human
Parameters: RFU PODN (11730768_x_at) / Fold change /veh PODN (11730768_x_at) / RFU LINC00158 (11744669_a_at) / Fold change /veh LINC00158 (11744669_a_at) / RFU DUSP10 (11751237_a_at) / Fold change /veh DUSP10 (11751237_a_at) / RFU ID3 (11757404_x_at) / Fold change /veh ID3 (11757404_x_at) / RFU PLEKHG5 (11737974_s_at) / Fold change /veh PLEKHG5 (11737974_s_at) / RFU LRRC4B (11730491_at) / Fold change /veh LRRC4B (11730491_at) / RFU GIMAP4 (11747438_a_at) / Fold change /veh GIMAP4 (11747438_a_at) / RFU KRT8 (11758183_x_at) / Fold change /veh KRT8 (11758183_x_at) / RFU CNN1 (11734310_a_at) / Fold change /veh CNN1 (11734310_a_at) / RFU VPS37D (11726825_at) / Fold change /veh VPS37D (11726825_at) / RFU C10orf10 (11716522_x_at) / Fold change /veh C10orf10 (11716522_x_at) / RFU KIR2DL2 /// KIR2DL4 /// KIR2DL5A /// KIR2DL5B /// KIR2DS1 /// KIR2DS2 /// KIR2DS3 /// KIR2DS4 /// KIR3DL3 /// KIR3DL3 /// KIR3DS1 (11738374_at) / Fold change /veh KIR2DL2 /// KIR2DL4 /// KIR2DL5A /// KIR2DL5B /// KIR2DS1 /// KIR2DS2 /// KIR2DS3 /// KIR2DS4 /// KIR3DL3 /// KIR3DL3 /// KIR3DS1 (11738374_at) / RFU C1QL1 (11718748_at) / Fold change /veh C1QL1 (11718748_at) / RFU TMPRSS4 (11747572_a_at) / Fold change /veh TMPRSS4 (11747572_a_at) / RFU HAMP (11756126_x_at) / Fold change /veh HAMP (11756126_x_at) / RFU RNFT2 (11725882_a_at) / Fold change /veh RNFT2 (11725882_a_at) / RFU NR4A2 (11747474_a_at) / Fold change /veh NR4A2 (11747474_a_at) / RFU ABCC12 (11746883_a_at) / Fold change /veh ABCC12 (11746883_a_at) / RFU TMEM136 (11760407_x_at) / Fold change /veh TMEM136 (11760407_x_at) / RFU CLDN22 /// WWC2 (11732394_at) / Fold change /veh CLDN22 /// WWC2 (11732394_at) / RFU HLA-DPB1 (11760878_x_at) / Fold change /veh HLA-DPB1 (11760878_x_at) / RFU SPINT1 (11716480_a_at) / Fold change /veh SPINT1 (11716480_a_at) / RFU GAP43 (11754022_s_at) / Fold change /veh GAP43 (11754022_s_at) / RFU A4GNT (11735810_at) / Fold change /veh A4GNT (11735810_at) / RFU PRB3 (11715151_x_at) / Fold change /veh PRB3 (11715151_x_at) / RFU TUBB4B (11761932_at) / Fold change /veh TUBB4B (11761932_at) / RFU CAPN14 (11732068_a_at) / Fold change /veh CAPN14 (11732068_a_at) / RFU TMCC2 (11721928_a_at) / Fold change /veh TMCC2 (11721928_a_at) / RFU IRGQ (11745062_a_at) / Fold change /veh IRGQ (11745062_a_at) / RFU FAM174B (11720279_a_at) / Fold change /veh FAM174B (11720279_a_at) / RFU TMPRSS4 (11748680_a_at) / Fold change /veh TMPRSS4 (11748680_a_at) / RFU FAM212B (11763350_a_at) / Fold change /veh FAM212B (11763350_a_at) / RFU PLEKHG5 (11743358_a_at) / Fold change /veh PLEKHG5 (11743358_a_at) / RFU ZSCAN30 (11745921_a_at) / Fold change /veh ZSCAN30 (11745921_a_at) / RFU CMKLR1 (11741424_a_at) / Fold change /veh CMKLR1 (11741424_a_at) / RFU LOC101060620 /// MAPK8IP1 (11723275_at) / Fold change /veh LOC101060620 /// MAPK8IP1 (11723275_at) / RFU SPTSSB (11747773_x_at) / Fold change /veh SPTSSB (11747773_x_at) / RFU PRSS12 (11739890_at) / Fold change /veh PRSS12 (11739890_at) / RFU BIN1 (11741810_x_at) / Fold change /veh BIN1 (11741810_x_at) / RFU WNT11 (11732464_a_at) / Fold change /veh WNT11 (11732464_a_at) / RFU C10orf10 (11716521_a_at) / Fold change /veh C10orf10 (11716521_a_at) / RFU C5orf56 (11738089_at) / Fold change /veh C5orf56 (11738089_at) / RFU CYB561 (11721691_x_at) / Fold change /veh CYB561 (11721691_x_at) / RFU ANKRD19P (11752326_a_at) / Fold change /veh ANKRD19P (11752326_a_at) / RFU OR2T12 /// OR2T33 /// OR2T8 (11738714_s_at) / Fold change /veh OR2T12 /// OR2T33 /// OR2T8 (11738714_s_at) / RFU VCAN (11748164_a_at) / Fold change /veh VCAN (11748164_a_at) / RFU JSRP1 (11732532_at) / Fold change /veh JSRP1 (11732532_at) / RFU KRTAP10-11 (11738290_x_at) / Fold change /veh KRTAP10-11 (11738290_x_at) / RFU MYO3A (11730013_a_at) / Fold change /veh MYO3A (11730013_a_at) / RFU EBF3 (11725865_a_at) / Fold change /veh EBF3 (11725865_a_at) / RFU CAMK2N1 (11719241_x_at) / Fold change /veh CAMK2N1 (11719241_x_at) / RFU C5orf56 (11738088_a_at) / Fold change /veh C5orf56 (11738088_a_at) / RFU OLFML3 (11715873_a_at) / Fold change /veh OLFML3 (11715873_a_at) / RFU LOC100653217 /// NTM (11731650_a_at) / Fold change /veh LOC100653217 /// NTM (11731650_a_at) / RFU MAPK11 (11762145_a_at) / Fold change /veh MAPK11 (11762145_a_at) / RFU FIZ1 (11724087_x_at) / Fold change /veh FIZ1 (11724087_x_at) / RFU OASL (11726364_x_at) / Fold change /veh OASL (11726364_x_at) / RFU SOX15 (11748057_x_at) / Fold change /veh SOX15 (11748057_x_at) / RFU CD79A (11719716_a_at) / Fold change /veh CD79A (11719716_a_at) / RFU HIST1H1D (11736915_at) / Fold change /veh HIST1H1D (11736915_at) / RFU CASKIN2 (11723855_a_at) / Fold change /veh CASKIN2 (11723855_a_at) / RFU LOC730098 (11760151_x_at) / Fold change /veh LOC730098 (11760151_x_at) / RFU OR4N2 (11742367_at) / Fold change /veh OR4N2 (11742367_at) / RFU PRRT2 (11749266_a_at) / Fold change /veh PRRT2 (11749266_a_at) / RFU SNX32 (11753110_a_at) / Fold change /veh SNX32 (11753110_a_at) / RFU CDHR5 (11726645_a_at) / Fold change /veh CDHR5 (11726645_a_at) / RFU RCAN1 (11760418_a_at) / Fold change /veh RCAN1 (11760418_a_at) / RFU FAM167A (11723789_a_at) / Fold change /veh FAM167A (11723789_a_at) / RFU FAM26E (11764081_at) / Fold change /veh FAM26E (11764081_at) / RFU ISYNA1 (11749810_s_at) / Fold change /veh ISYNA1 (11749810_s_at) / RFU ACY1 (11761880_at) / Fold change /veh ACY1 (11761880_at) / RFU 11764098_at / Fold change /veh 11764098_at / RFU SAMD14 (11745864_x_at) / Fold change /veh SAMD14 (11745864_x_at) / RFU NPB (11741838_a_at) / Fold change /veh NPB (11741838_a_at) / RFU TMPRSS6 (11731388_a_at) / Fold change /veh TMPRSS6 (11731388_a_at) / RFU KRTAP10-2 (11738614_at) / Fold change /veh KRTAP10-2 (11738614_at) / RFU ARHGAP8 /// PRR5-ARHGAP8 (11727945_x_at) / Fold change /veh ARHGAP8 /// PRR5-ARHGAP8 (11727945_x_at) / RFU KRTAP5-7 /// NADSYN1 (11734609_at) / Fold change /veh KRTAP5-7 /// NADSYN1 (11734609_at) / RFU RASL12 (11751679_a_at) / Fold change /veh RASL12 (11751679_a_at) / RFU CDKN2B (11736163_a_at) / Fold change /veh CDKN2B (11736163_a_at) / RFU PRF1 (11729649_at) / Fold change /veh PRF1 (11729649_at) / RFU, ZNF638 /// ZNF638-IT1 / Fold change vs veh, ZNF638 /// ZNF638-IT1 / RFU, PANK3 / Fold change vs veh, PANK3 / RFU, SH3YL1 / Fold change vs veh, SH3YL1 / RFU, ZEB2 / Fold change vs veh, ZEB2 / RFU, NRIP1 / Fold change vs veh, NRIP1 / RFU, PTTG1IP / Fold change vs veh, PTTG1IP / RFU, CAPN2 / Fold change vs veh, CAPN2 / RFU, MED14 / Fold change vs veh, MED14 / RFU, SNORA58 / Fold change vs veh, SNORA58 / RFU, C1orf63 / Fold change vs veh, C1orf63 / RFU, LRRFIP1 / Fold change vs veh, LRRFIP1 / RFU, NDUFAF7 / Fold change vs veh, NDUFAF7 / RFU, SLC12A2 / Fold change vs veh, SLC12A2 / RFU, IBTK / Fold change vs veh, IBTK / RFU, ESF1 / Fold change vs veh, ESF1 / Fold change vs veh, TMEM50B / RFU, TAOK1 / Fold change vs veh, TAOK1 / RFU, ACBD3 / Fold change vs veh, ACBD3 / RFU, TMA16 / Fold change vs veh, TMA16 / RFU, RWDD3 / Fold change vs veh, RWDD3 / RFU, BCAT1 / Fold change vs veh, BCAT1 / RFU, EDEM3 / Fold change vs veh, EDEM3 / RFU, TMEM33 / Fold change vs veh, TMEM33 / RFU, WDR75 / Fold change vs veh, WDR75 / RFU, AHCTF1 / Fold change vs veh, AHCTF1 / RFU, TFRC / Fold change vs veh, TFRC / RFU, ZDHHC17 / Fold change vs veh, ZDHHC17 / RFU, NOM1 / Fold change vs veh, NOM1 / RFU, ARL8B / Fold change vs veh, ARL8B / RFU, ZBTB11 / Fold change vs veh, ZBTB11 / RFU, TAMM41 / Fold change vs veh, TAMM41 / RFU, KIAA1704 /// LOC100996395 / Fold change vs veh, KIAA1704 /// LOC100996395 / RFU, ING1 / Fold change vs veh, ING1 / RFU, TRMT61B / Fold change vs veh, TRMT61B / RFU, FUBP3 / Fold change vs veh, FUBP3 / RFU, TP53 / Fold change vs veh, TP53 / RFU, TNKS2 / Fold change vs veh, TNKS2 / RFU, ZFP14 / Fold change vs veh, ZFP14 / RFU, ACTR2 / Fold change vs veh, ACTR2 / RFU, PPP3R1 / Fold change vs veh, PPP3R1 / RFU, PIK3R1 / Fold change vs veh, PIK3R1 / RFU, HNRNPA1 / Fold change vs veh, HNRNPA1 / RFU, RNF170 / Fold change vs veh, RNF170 / RFU, ZNF28 / Fold change vs veh, ZNF28 / RFU, RNGTT / Fold change vs veh, RNGTT / RFU, OGT / Fold change vs veh, OGT / RFU, BRD1 / Fold change vs veh, BRD1 / RFU, MARS / Fold change vs veh, MARS / RFU, ZNF655 / Fold change vs veh, ZNF655 / RFU, FAHD1 / Fold change vs veh, FAHD1 / RFU, BDP1 / Fold change vs veh, BDP1 / RFU, LRRCC1 / Fold change vs veh, LRRCC1 / RFU, ARID1A / Fold change vs veh, ARID1A / RFU, ZNF146 / Fold change vs veh, ZNF146 / RFU, ZNF330 / Fold change vs veh, ZNF330 / RFU, GPN3 / Fold change vs veh, GPN3 / RFU, C9orf123 / Fold change vs veh, C9orf123 / RFU, N4BP2L2 / Fold change vs veh, N4BP2L2 / RFU, ARFIP1 / Fold change vs veh, ARFIP1 / RFU, FAM179B / Fold change vs veh, FAM179B / RFU, BCL10 / Fold change vs veh, BCL10 / RFU, UHRF1BP1L / Fold change vs veh, UHRF1BP1L / RFU, BET1 / Fold change vs veh, BET1 / RFU, CNOT2 / Fold change vs veh, CNOT2 / RFU, ZNF268 / Fold change vs veh, ZNF268 / Fold change vs veh, ZNF507 / RFU, DGCR2 / Fold change vs veh, DGCR2 / RFU, WDSUB1 / Fold change vs veh, WDSUB1 / Fold change vs veh, HSP90B1 /// MIR3652 / RFU, ADSS / Fold change vs veh, ADSS / RFU, GK / Fold change vs veh, GK / RFU, ZNF148 / Fold change vs veh, ZNF148 / RFU, TAF9 / Fold change vs veh, TAF9 / RFU, SLC1A5 / Fold change vs veh, SLC1A5 / RFU, SLMO2 / Fold change vs veh, SLMO2 / RFU, ABCC4 / Fold change vs veh, ABCC4 / RFU, LOC101060439 /// RAP1B / Fold change vs veh, LOC101060439 /// RAP1B / RFU, RFX7 / Fold change vs veh, RFX7 / RFU, GTPBP10 / Fold change vs veh, GTPBP10 / RFU, CNEP1R1 / Fold change vs veh, CNEP1R1 / RFU, BIVM-ERCC5 /// ERCC5 / Fold change vs veh, BIVM-ERCC5 /// ERCC5 / RFU, ILF3 / Fold change vs veh, ILF3 / RFU 11762660_at / Fold change /veh 11762660_at / RFU VCAN (11757783_s_at) / Fold change /veh VCAN (11757783_s_at) / RFU DDX43 (11728927_at) / Fold change /veh DDX43 (11728927_at) / RFU KRT8 (11758188_x_at) / Fold change /veh KRT8 (11758188_x_at) / RFU NKD1 (11759106_at) / Fold change /veh NKD1 (11759106_at) / RFU SRD5A1 (11742802_a_at) / Fold change /veh SRD5A1 (11742802_a_at) / RFU TPSAB1 /// TPSB2 (11721975_s_at) / Fold change /veh TPSAB1 /// TPSB2 (11721975_s_at) / RFU GSTM3 (11746129_a_at) / Fold change /veh GSTM3 (11746129_a_at) / RFU IL23R (11737362_x_at) / Fold change /veh IL23R (11737362_x_at) / RFU TMEM51 (11727254_a_at) / Fold change /veh TMEM51 (11727254_a_at) / RFU PIWIL2 (11732686_x_at) / Fold change /veh PIWIL2 (11732686_x_at) / RFU ORM1 (11744905_x_at) / Fold change /veh ORM1 (11744905_x_at) / RFU CCDC152 (11743942_at) / Fold change /veh CCDC152 (11743942_at) / RFU ECM1 (11717891_a_at) / Fold change /veh ECM1 (11717891_a_at) / RFU IL23R (11748794_a_at) / Fold change /veh IL23R (11748794_a_at) / RFU TNFAIP8L3 (11732012_x_at) / Fold change /veh TNFAIP8L3 (11732012_x_at) / RFU MBOAT4 (11741988_at) / Fold change /veh MBOAT4 (11741988_at) / RFU 11764193_at / Fold change /veh 11764193_at / RFU TMEM53 (11763286_at) / Fold change /veh TMEM53 (11763286_at) / RFU MAGEB2 (11727129_at) / Fold change /veh MAGEB2 (11727129_at) / RFU TMEM200A (11744735_a_at) / Fold change /veh TMEM200A (11744735_a_at) / RFU CCDC152 (11751479_a_at) / Fold change /veh CCDC152 (11751479_a_at) / RFU FAM211A (11726209_a_at) / Fold change /veh FAM211A (11726209_a_at) / RFU RGS16 (11746705_a_at) / Fold change /veh RGS16 (11746705_a_at) / RFU VCAN (11755009_s_at) / Fold change /veh VCAN (11755009_s_at) / RFU RHOB (11743442_s_at) / Fold change /veh RHOB (11743442_s_at) / RFU RGS16 (11720943_a_at) / Fold change /veh RGS16 (11720943_a_at) / RFU RGS16 (11720944_at) / Fold change /veh RGS16 (11720944_at) / RFU, VPS4B / Fold change vs veh, VPS4B / RFU, CREB1 / Fold change vs veh, CREB1 / RFU, DNAJC13 / Fold change vs veh, DNAJC13 / RFU, GNAQ / Fold change vs veh, GNAQ / RFU, CDK5R1 / Fold change vs veh, CDK5R1 / RFU, ZRANB3 / Fold change vs veh, ZRANB3 / RFU, CUL4A / Fold change vs veh, CUL4A / RFU, CCNY / Fold change vs veh, CCNY / RFU, UFL1 / Fold change vs veh, UFL1 / RFU, COG3 / Fold change vs veh, COG3 / RFU, DIAPH2 / Fold change vs veh, DIAPH2 / RFU, SKA2 / Fold change vs veh, SKA2 / RFU, AFF3 / Fold change vs veh, AFF3 / RFU, LMF1 / Fold change vs veh, LMF1 / RFU, IPO11 / Fold change vs veh, IPO11 / RFU, DFFB / Fold change vs veh, DFFB / RFU, FOXP1 / Fold change vs veh, FOXP1 / RFU, CARD8 / Fold change vs veh, CARD8 / RFU, STRN3 / Fold change vs veh, STRN3 / RFU, ADK / Fold change vs veh, ADK / RFU, RASSF2 / Fold change vs veh, RASSF2 / RFU, WIPF1 / Fold change vs veh, WIPF1 / RFU, LARP1B / Fold change vs veh, LARP1B / RFU, RASA1 / Fold change vs veh, RASA1 / RFU, RB1 / Fold change vs veh, RB1 / RFU, PPFIA1 / Fold change vs veh, PPFIA1 / RFU, MAT2A / Fold change vs veh, MAT2A / RFU, CCT5 / Fold change vs veh, CCT5 / RFU, WDR92 / Fold change vs veh, WDR92 / RFU, CUX1 / Fold change vs veh, CUX1 / RFU, TTC7A / Fold change vs veh, TTC7A / RFU, TMEM135 / Fold change vs veh, TMEM135 / RFU, DEPTOR / Fold change vs veh, DEPTOR / RFU, CPM / Fold change vs veh, CPM / RFU, DNAJB6 / Fold change vs veh, DNAJB6 / RFU, CACNA2D3 / Fold change vs veh, CACNA2D3 / RFU, DTX4 / Fold change vs veh, DTX4 / RFU, TFCP2 / Fold change vs veh, TFCP2 / RFU, GMCL1 /// GMCL1P1 / Fold change vs veh, GMCL1 /// GMCL1P1 / RFU, AEBP2 / Fold change vs veh, AEBP2 / RFU, SNHG1 /// SNORD22 /// SNORD25 /// SNORD26 /// SNORD27 /// SNORD28 /// SNORD29 /// SNORD31 / Fold change vs veh, SNHG1 /// SNORD22 /// SNORD25 /// SNORD26 /// SNORD27 /// SNORD28 /// SNORD29 /// SNORD31 / Fold change (Aza/veh), C12orf56 (ProbeSet 11735607_a_at) / Fold change (ACY-1035/veh), C12orf56 (ProbeSet 11735607_a_at) / Fold change (Aza/veh), FGFR1OP (ProbeSet 11751329_s_at) / Fold change (ACY-1035/veh), FGFR1OP (ProbeSet 11751329_s_at) / Fold change (Aza/veh), VPS36 (ProbeSet 11739960_a_at) / Fold change (ACY-1035/veh), VPS36 (ProbeSet 11739960_a_at) / RFU SYPL1 (11715823_x_at) / Fold change /veh SYPL1 (11715823_x_at) / RFU IGFBP7 (11715501_s_at) / Fold change /veh IGFBP7 (11715501_s_at) / RFU REEP3 (11722064_at) / Fold change /veh REEP3 (11722064_at) / RFU IGLL1 (11728026_x_at) / Fold change /veh IGLL1 (11728026_x_at): dose or concentration left out as unconfirmed
Settings: ProbeSet 11717308_a_at; LIST B

Nc1ncn([C@@H]2O[C@H](CO)[C@@H](O)[C@H]2O)c(=O)n1 [azacitidine]
Fold change vs veh, WDR75: 1.10
